Data taken from publication PMC11946679 (Toxics, 2025).
Marks after values point to notes of the source that are not given here.

Tests used:
[1] = test system: human peripheral blood lymphocytes; test: CBMN cytome assay: micronuclei, nuclear buds, nucleoplasmic bridges; conditions: alone, 3 h; IRI 9.0 mg/L, bleomycin 15 mg/L
Procedure: The CBMN assay was performed in line with standard protocols [8, 23].
To collect the blood sample, lithium heparin-coated tubes were used (BD vacutainer® with LH 170 I.U., Becton Dickinson: BD-Plymouth PL6 78P, UK).
There were 15 experimental groups altogether. The same experimental design was applied in two independent trials, each of which had two replicate cultures per experimental group; therefore, four replicate cultures for every single experimental group were established.
To induce cell division prior to exposure to the test chemicals, lymphocytes were stimulated with the mitogen phytohemagglutinin (PHA). Cultures were kept in a humidified atmosphere of 5% CO2 at 37 °C.
They started 41 h after PHA stimulation and lasted for 3 h at 37 °C.
Upon completion of exposure, lymphocyte cultures were centrifuged at 100× g. […] This procedure was timed for the 44th hour of lymphocyte cultivation, which represents a critical point for adding of cytoB to hinder cytokinesis and obtain binucleated cells. All treated and control cultures were further maintained at 37 °C until the end of the 72nd hour of cultivation, according to the above-mentioned standard protocols.
The first step in the preparation of microscopic slides was harvesting of cells by centrifugation (100× g), followed by treatment with 0.075 mol/L potassium chloride and succeeded by centrifugation. The sediments of cells were repeatedly fixed with methanol/acetic acid (3:1 v/v) followed by centrifugation. The final lymphocyte suspension was pipetted onto clean microscope slides. For staining, 5% aqueous solution of Giemsa dye was used. Slides were screened using a light microscope at 1000× magnification. For morphological discrimination of micronuclei (MNi), nuclear buds (NBs), nucleoplasmic bridges (NPBs) and cells in apoptosis or necrosis, the criteria by Fenech et al. [25] and Fenech [23] were applied. To determine their frequencies, per experimental point, a total of 4 × 1000 binucleated (BN) cells were scored.
This value was first used to estimate the number of MNi required to reach a decrease and an increase considered significant at a 5% significance level.

[2] = test system: human peripheral blood lymphocytes; format: cell-based; conditions: alone, 3 h, IRI 9.0 mg/L, bleomycin 15 mg/L; for Total No. of Cells in Apoptosis / Total No. of Nonviable Cells: scored along with 4000 binucleated cells
Excerpt: While screening microscope preparations to determine trends in the levels of the main CBMN assay descriptors, nonviable cells were also simultaneously counted on the same slides. Their discrimination was based on the specific morphological features typical for apoptosis or necrosis. It is well known that the biological significance of these phenomena differs deeply, and that the determination of the predominant type of cell death represents a very important issue in each experimental setting.
For each experimental group, we also calculated the ratio between the recorded number of nonviable cells and the cells in apoptosis (Table 5). According to reference, a ratio ≤ 1 means a prevalence of apoptotic events that induce cell death, while a ratio > 1 indicates the acute toxicity of the tested substance that promotes necrosis.

[3] = test system: human peripheral blood lymphocytes; test: CBMN cytome assay: lymphocyte proliferation (M1-M4, CBPI, RI); format: cell-based; conditions: alone, 3 h; IRI 9.0 mg/L, bleomycin 15 mg/L
Procedure: On the same slides, parameters of cell proliferation and cytotoxicity were also evaluated, in line with the OECD protocol.

Bleomycin [reference compound]
Distribution of BNMN Cells with 1 MN [1]: 65 *
Distribution of BNMN Cells with 2 MN [1]: 11 iri, g10+iri
Distribution of BNMN Cells with 3 MN [1]: 2
Distribution of BNMN Cells with 4 MN [1]: 1
Distribution of BNNB Cells with 1 NB [1]: 49 *
Distribution of BNNB Cells with 2 NB [1]: 4 c,p1,p5,p10,g1, g5,g10, p1+iri, p5+iri, p10+iri, g5+iri, g10+iri
Distribution of BNNPB Cells with 1 NPB [1]: 7 c,p1,p5,p10,g1, g5,g10, p1+iri, p5+iri, p10+iri, g1+iri, g5+iri, g10+iri
Distribution of BNNPB Cells with 2 NPB [1]: 0
Micronuclei (MNi) Mean (BNMN)1000 ± SD [1]: 19.75 ± 3.77
Micronuclei (MNi) Mean (MNi)1000 ± SD [1]: 24.25 ± 6.24
Micronuclei (MNi) Total (BNMN)4000 [1]: 79 *
Micronuclei (MNi) Total (MNi)4000 [1]: 97 *
Nuclear Buds (NBs) Mean (BNNB)1000 ± SD [1]: 13.25 ± 0.96
Nuclear Buds (NBs) Mean (NBs)1000 ± SD [1]: 14.25 ± 0.50
Nuclear Buds (NBs) Total (BNNB)4000 [1]: 53 *
Nuclear Buds (NBs) Total (NBs)4000 [1]: 57 *
Nucleoplasmic Bridges (NPBs) Mean (BNNPB)1000 ± SD [1]: 1.75 ± 1.26 c,p1,p5,p10, g1,g5,g10, p1+iri, p5+iri, p10+iri, g1+iri, g5+iri, g10+iri
Nucleoplasmic Bridges (NPBs) Mean (NPBs)1000 ± SD [1]: 1.75 ± 1.26 c,p1,p5,p10, g1,g5,g10, p1+iri, p5+iri, p10+iri, g1+iri, g5+iri, g10+iri
Nucleoplasmic Bridges (NPBs) Total (BNNPB)4000 [1]: 7 c,p1,p5, p10,g1,g5,g10,p1+iri,p5+iri, p10+iri, g1+iri, g5+iri, g10+iri
Nucleoplasmic Bridges (NPBs) Total (NPBs)4000 [1]: 7 c,p1,p5,p10,g1,g5,g10,p1+iri, p5+iri, p10+iri, g1+iri, g5+iri, g10+iri
Ratio (nonviable cells and cells in apoptosis) [2]: 0.6
Total No. of Cells in Apoptosis [2]: 59
Total No. of Nonviable Cells [2]: 100
% of Cells with 1 to 4 Nuclei M1 [3]: 45.5 ^↑ %
% of Cells with 1 to 4 Nuclei M2 [3]: 46.1 ^↓ %
% of Cells with 1 to 4 Nuclei M3 [3]: 4.2%
% of Cells with 1 to 4 Nuclei M4 [3]: 4.2 ^↓ %
CBPI [3]: 1.629
Replication Index (%) [3]: 64.0%

CCc1c2c(nc3ccc(OC(=O)N4CCC(N5CCCCC5)CC4)cc13)-c1cc3c(c(=O)n1C2)COC(=O)[C@]3(O)CC [Irinotecan, reference compound]
Total No. of Cells in Apoptosis [2]: 42
Total No. of Nonviable Cells [2]: 76
% of Cells with 1 to 4 Nuclei M1 [3]: 43.1 ^↑ %
% of Cells with 1 to 4 Nuclei M2 [3]: 52.9 ^↓ %
% of Cells with 1 to 4 Nuclei M3 [3]: 2.0 ^↓ %
% of Cells with 1 to 4 Nuclei M4 [3]: 2.0 ^↓ %
CBPI [3]: 1.609
